25 compounds from patent publication US10654828B2 (NOVARTIS AG, priority 2017, dated 2020) can be followed below.

Where two headings read alike, the source gives them in different places.

For one experiment, the system named is FoxO3a. Briefly: FoxO3a inhibition: GFP-FoxO3a nuclear to cytoplasmic translocation reporter assay. The class given is cell-based. As to conditions: U2OS GFP-FoxO3a H212R cells, serum starved overnight, compound 30 minutes, ratio of nuclear to cytosolic GFP intensity, DMSO control 0%, read-out: FoxO AC50. On the procedure:
(§1) Phosphorylation of AKT on S473 and FoxO3a nuclear to cytoplasmic translocation were used as readouts of PI3K/Akt/mTOR pathway activation downstream of growth factor signaling.
(§2) Reporter cell line. U2OS GFP-FoxO3a H212R reporter cell line was established by transducing U2OS cells with the retroviral plasmid pLEGFP-C1 containing FoxO3a H212R transgene and selecting for G418 resistant clones.
(§3) Reporter assay. U2OS GFP-FoxO3a H212R cells were plated in 384-well plates at 4000 cells per well in 30 microliters of McCoy's 5 A medium containing 10% FBS. On day 1 the cells were washed with serum free medium and serum starved overnight. On day 2 the cells were treated with different doses of the compounds for 30 minutes, fixed with 4% Paraformaldehyde for 1 hour and stained with Phospho-AKT (Ser473) antibody (Cell Signaling Technology, catalog #4060) overnight at 4 degrees Celsius. After nuclei staining with Hoechst 33342 (Life Technologies, catalog # H3570) the plates were imaged with InCell 2000 (GE Healthcare Bio-Sciences). FoxO3a inhibition activity is calculated as the ratio of nuclear to cytosolic GFP intensity in percent. AKT activation is measured as the total cellular intensity of Phospho-AKT antibody staining in percent. DMSO control is set as 0% activity.
(In general: A reporter such as luciferase makes a cellular process visible.)

A further experiment deals with AKT. Briefly: AKT activation: Phospho-AKT (Ser473) antibody staining in reporter cells. The format is cell-based. To be noted: U2OS GFP-FoxO3a H212R cells, serum starved overnight, compound 30 minutes, total cellular intensity of Phospho-AKT (Ser473) staining, DMSO control 0%. On the procedure: as §1, §2, §3

In the case of `Cc1cc(C(N)=O)nn1-c1ccc2c(ccn2Cc2ccc(C#CCN(C)C)cc2)c1` [Example 12, 1-(1-(4-(3-(dimethylamino)prop-1-yn-1-yl)benzyl)-1H-indol-5-yl)-5-methyl-1H-pyrazole-3-carboxamide], the AC50 – broadly, the concentration giving half of the maximal activity seen – was 402 nM in the experiment on FoxO3a (Homo sapiens, U2OS, 0.5 h) and 1190 nM with AKT (Homo sapiens, U2OS, 0.5 h).

Consider `Cc1cc(C(N)=O)nn1-c1ccc2c(ccn2Cc2ccc(-c3ccc4c(c3)CC(=O)N4)cc2)c1` [Example 1-31, 5-methyl-1-(1-(4-(2-oxoindolin-5-yl)benzyl)-1H-indol-5-yl)-1H-pyrazole-3-carboxamide], for which the AC50 in the experiment on FoxO3a (Homo sapiens, U2OS, 0.5 h) was found to be 55 nM; with AKT (Homo sapiens, U2OS, 0.5 h), 138 nM.

For the compound `Cc1cc(C(N)=O)nn1-c1ccc2c(ccn2Cc2ccc(C3=CCN(C)CC3(C)C)cc2)c1` [Example 15-2, 5-methyl-1-(1-(4-(1,3,3-trimethyl-1,2,3,6-tetrahydropyridin-4-yl)benzyl)-1H-indol-5-yl)-1H-pyrazole-3-carboxamide], the AC50 in the experiment on FoxO3a (Homo sapiens, U2OS, 0.5 h) was determined as 197 nM; in the experiment with AKT (Homo sapiens, U2OS, 0.5 h), 389 nM.

`Cc1cc(C(N)=O)nn1-c1ccc2c(ccn2Cc2ccc(C3=CCN(C)C(C)(C)C3)cc2)c1` [Example 15-1, 5-methyl-1-(1-(4-(1,2,2-trimethyl-1,2,3,6-tetrahydropyridin-4-yl)benzyl)-1H-indol-5-yl)-1H-pyrazole-3-carboxamide]: the AC50 in the experiment with FoxO3a (Homo sapiens, U2OS, 0.5 h) amounted to 242 nM; in the experiment with AKT (Homo sapiens, U2OS, 0.5 h), 391 nM.

In the case of `Cc1cc(C(N)=O)nn1-c1ccc2c(ccn2Cc2ccc(-c3ccc(S(=O)(=O)N(C)C)cc3)cc2)c1` [Example 1-13, 1-(1-((4′-(N,N-dimethylsulfamoyl)-[1,1′-biphenyl]-4-yl)methyl)-1H-indol-5-yl)-5-methyl-1H-pyrazole-3-carboxamide], the AC50 in the experiment with FoxO3a (Homo sapiens, U2OS, 0.5 h) was determined as 84 nM; with AKT (Homo sapiens, U2OS, 0.5 h) it was 230 nM.

In the case of `Cc1cc(C(N)=O)nn1-c1ccc2c(ccn2Cc2ccc(C3=CCN4CCCC3C4)cc2)c1` (single isomer, unassigned) [Example 14, 1-(1-(4-(1-azabicyclo[3.3.1]non-3-en-4-yl)benzyl)-1H-indol-5-yl)-5-methyl-1H-pyrazole-3-carboxamide], the figures for the AC50 in the experiment with FoxO3a and in the experiment with AKT were 652 nM and 2100 nM, respectively.

Regarding `COc1ncc(-c2ccc(Cn3ccc4cc(-n5nc(C(N)=O)cc5C)ccc43)cc2)cn1` [Example 1-28, 1-(1-(4-(2-methoxypyrimidin-5-yl)benzyl)-1H-indol-5-yl)-5-methyl-1H-pyrazole-3-carboxamide], the AC50 in the experiment with FoxO3a (Homo sapiens, U2OS, 0.5 h) was 223 nM; in the experiment with AKT (Homo sapiens, U2OS, 0.5 h) it was 1170 nM.

Regarding `Cc1cc(C(N)=O)nn1-c1ccc2c(ccn2Cc2ccc(C3CCN(C)C3)cc2)c1` (racemic) [Example 2-1, rac-5-methyl-1-(1-(4-(1-methylpyrrolidin-3-yl)benzyl)-1H-indol-5-yl)-1H-pyrazole-3-carboxamide], the half-maximal activity concentration (AC50) in the experiment on FoxO3a (Homo sapiens, U2OS, 0.5 h) was 733 nM; with AKT (Homo sapiens, U2OS, 0.5 h), 2510 nM.

Regarding `COc1ccc(-c2ccc(Cn3ccc4cc(-n5nc(C(N)=O)cc5C)ccc43)cc2)cc1` [Example 1-30, 1-(1-((4′-methoxy-[1,1′-biphenyl]-4-yl)methyl)-1H-indol-5-yl)-5-methyl-1H-pyrazole-3-carboxamide], the AC50 with FoxO3a (Homo sapiens, U2OS, 0.5 h) came out at 216 nM; in the experiment with AKT (Homo sapiens, U2OS, 0.5 h) it was 952 nM.

As for `Cc1cc(C(N)=O)nn1-c1ccc2c(ccn2Cc2ccc(-c3ccc(O)c(F)c3)cc2)c1` [Example 1-15, 1-(1-((3′-fluoro-4′-hydroxy-[1,1′-biphenyl]-4-yl)methyl)-1H-indol-5-yl)-5-methyl-1H-pyrazole-3-carboxamide], the AC50 came out at 56 nM in the experiment on FoxO3a (Homo sapiens, U2OS, 0.5 h) and 172 nM in the experiment with AKT (Homo sapiens, U2OS, 0.5 h).

On to `Cc1cc(C(N)=O)nn1-c1ccc2c(ccn2Cc2ccc(-c3ccncc3)cc2)c1` [Example 1-2, 5-methyl-1-(1-(4-(pyridin-4-yl)benzyl)-1H-indol-5-yl)-1H-pyrazole-3-carboxamide], for which the AC50 in the experiment on FoxO3a (Homo sapiens, U2OS, 0.5 h) is 102 nM.

Turning to `Cc1cc(C(N)=O)nn1-c1ccc2c(ccn2Cc2ccc(C3=CCN(S(C)(=O)=O)CC3)cc2)c1` [Example 4, 5-methyl-1-(1-(4-(1-(methylsulfonyl)-1,2,3,6-tetrahydropyridin-4-yl)benzyl)-1H-indol-5-yl)-1H-pyrazole-3-carboxamide], the AC50 was found to be 109 nM with FoxO3a (Homo sapiens, U2OS, 0.5 h) and 306 nM in the experiment with AKT (Homo sapiens, U2OS, 0.5 h).

Consider `Cc1cc(C(N)=O)nn1-c1ccc2c(ccn2Cc2ccc(-c3ccc(CN4CCN(C)CC4)cc3)cc2)c1` [Example 34-3, 5-methyl-1-(1-((4′-((4-methylpiperazin-1-yl)methyl)-[1,1′-biphenyl]-4-yl)methyl)-1H-indol-5-yl)-1H-pyrazole-3-carboxamide], for which the AC50 in the experiment on FoxO3a (Homo sapiens, U2OS, 0.5 h) came out at 131 nM; in the experiment on AKT (Homo sapiens, U2OS, 0.5 h), 266 nM.

Regarding `Cc1cc(C(N)=O)nn1-c1ccc2c(ccn2Cc2ccc(NC3CCN(C)C3)cc2)c1` (single isomer, unassigned) [Example 37-1, 5-Methyl-1-(1-(4-((1-methylpyrrolidin-3-yl)amino)benzyl)-1H-indol-5-yl)-1H-pyrazole-3-carboxamide], the AC50 in the experiment on FoxO3a (Homo sapiens, U2OS, 0.5 h) stood at 724 nM; in the experiment with AKT (Homo sapiens, U2OS, 0.5 h) it was 4790 nM.

As to `Cc1cc(C(N)=O)nn1-c1ccc2c(ccn2Cc2ccc(-c3ccc(S(C)(=O)=O)cc3)cc2)c1` [Example 1-6, 5-methyl-1-(1-((4′-(methylsulfonyl)-[1,1′-biphenyl]-4-yl)methyl)-1H-indol-5-yl)-1H-pyrazole-3-carboxamide], the AC50 in the experiment on FoxO3a (Homo sapiens, U2OS, 0.5 h) was 101 nM; in the experiment with AKT (Homo sapiens, U2OS, 0.5 h), 250 nM.

For the compound `Cc1cc(C(N)=O)nn1-c1ccc2c(c1)c(C1CCOCC1)cn2Cc1ccc(-c2ccc(S(C)(=O)=O)cc2)cc1` [Example 20, 5-methyl-1-(1-((4′-(methylsulfonyl)-[1,1′-biphenyl]-4-yl)methyl)-3-(tetrahydro-2H-pyran-4-yl)-1H-indol-5-yl)-1H-pyrazole-3-carboxamide], the AC50 with FoxO3a (Homo sapiens, U2OS, 0.5 h) worked out at 68 nM; in the experiment with AKT (Homo sapiens, U2OS, 0.5 h), 186 nM.

Regarding `Cc1cc(C(N)=O)nn1-c1ccc2c(ccn2Cc2ccc(-c3ccc(N(C)C)nc3)cc2)c1` [Example 1-23, 1-(1-(4-(6-(dimethylamino)pyridin-3-yl)benzyl)-1H-indol-5-yl)-5-methyl-1H-pyrazole-3-carboxamide], the AC50 with FoxO3a (Homo sapiens, U2OS, 0.5 h) came out at 93 nM; in the experiment on AKT (Homo sapiens, U2OS, 0.5 h) it was 293 nM.

Take `Cc1cc(C(N)=O)nn1-c1ccc2c(ccn2Cc2ccc(-c3ccc(CN4CCNCC4)cc3)cc2)c1` [Example 35, 5-methyl-1-(1-((4′-(piperazin-1-ylmethyl)-[1,1′-biphenyl]-4-yl)methyl)-1H-indol-5-yl)-1H-pyrazole-3-carboxamide]: the AC50 with FoxO3a (Homo sapiens, U2OS, 0.5 h) was found to be 181 nM; in the experiment on AKT (Homo sapiens, U2OS, 0.5 h), 603 nM.

`Cc1cc(C(N)=O)nn1-c1ccc2c(ccn2Cc2ccc(-c3ccc(S(=O)(=O)CCO)cc3)cc2)c1` [Example 18, 1-(1-((4′-((2-hydroxyethyl)sulfonyl)-[1,1′-biphenyl]-4-yl)methyl)-1H-indol-5-yl)-5-methyl-1H-pyrazole-3-carboxamide]: the AC50 in the experiment with FoxO3a (Homo sapiens, U2OS, 0.5 h) was determined as 57 nM; with AKT (Homo sapiens, U2OS, 0.5 h) it was 110 nM.

As to `Cc1cc(C(N)=O)nn1-c1ccc2c(ccn2Cc2ccc(N3CC4CN(C)CC4C3)cc2)c1` (stereo not shown) [Example 11-3, 5-methyl-1-(1-(4-(5-methylhexahydropyrrolo[3,4-c]pyrrol-2(1H)-yl)benzyl)-1H-indol-5-yl)-1H-pyrazole-3-carboxamide], the AC50 worked out at 1160 nM in the experiment on FoxO3a (Homo sapiens, U2OS, 0.5 h) and 2970 nM in the experiment with AKT (Homo sapiens, U2OS, 0.5 h).

For the compound `Cc1cc(C(N)=O)nn1-c1ccc2c(ccn2Cc2ccc(C3=CCN(C)CC3C)cc2)c1` (single isomer, unassigned) [Example 17-2, 1-(1-(4-(1,3-dimethyl-1,2,3,6-tetrahydropyridin-4-yl)benzyl)-1H-indol-5-yl)-5-methyl-1H-pyrazole-3-carboxamide], the figures for the AC50 in the experiment with FoxO3a and with AKT were 47 nM and 123 nM, respectively.

Regarding `Cc1cc(C(N)=O)nn1-c1ccc2c(ccn2Cc2ccc(C3=C[C@H]4CN(C)C[C@H]4C3)cc2)c1` (racemic) [Example 25, (cis)-5-methyl-1-(1-(4-(2-methyl-1,2,3,3a,4,6a-hexahydrocyclopenta[c]pyrrol-5-yl)benzyl)-1H-indol-5-yl)-1H-pyrazole-3-carboxamide], the AC50 was 215 nM with FoxO3a (Homo sapiens, U2OS, 0.5 h) and 1120 nM in the experiment on AKT (Homo sapiens, U2OS, 0.5 h).

On to `Cc1cc(C(N)=O)nn1-c1ccc2c(ccn2Cc2ccc(C3CCN(CCCN)CC3)cc2)c1` [Example 8, 1-(1-(4-(1-(3-aminopropyl)piperidin-4-yl)benzyl)-1H-indol-5-yl)-5-methyl-1H-pyrazole-3-carboxamide], for which the AC50 in the experiment on FoxO3a (Homo sapiens, U2OS, 0.5 h) came out at 466 nM.

For the compound `CC(=O)NCCCN1CCC(c2ccc(Cn3ccc4cc(-n5nc(C(N)=O)cc5C)ccc43)cc2)CC1` [Example 9, 1-(1-(4-(1-(3-acetamidopropyl)piperidin-4-yl)benzyl)-1H-indol-5-yl)-5-methyl-1H-pyrazole-3-carboxamide], the AC50 in the experiment with FoxO3a (Homo sapiens, U2OS, 0.5 h) was determined as 301 nM.

Take `Cc1cc(C(N)=O)nn1-c1ccc2c(c1)c(CCCO)cn2Cc1ccc([C@@H]2C[C@@H]3CN(C)C[C@@H]3C2)cc1` [Example 38, 1-(3-(3-hydroxypropyl)-1-(4-((3aR,5r,6aS)-2-methyloctahydrocyclopenta[c]pyrrol-5-yl)benzyl)-1H-indol-5-yl)-5-methyl-1H-pyrazole-3-carboxamide]: the AC50 with FoxO3a (Homo sapiens, U2OS, 0.5 h) was 81 nM.
